How the values were obtained:
memapsin 2 = memapsin 2 (Homo sapiens, UniProt P56817); experiment: Inhibition of memapsin 2 beta-secretase activity toward fluorogenic substrate FS-2; format: biochemical; details: pH 4, 37° C., 20 minutes pre-incubation, substrate FS-2, tight-binding model; read-out: M2 Ki
Outline: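 Enzyme pre-incubated with compound 20 min at pH 4, 37 °C, then fluorogenic substrate FS-2 added. Inhibition derived from rate of fluorescence increase from peptide hydrolysis.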

Cathepsin D = Cathepsin D (Homo sapiens, UniProt P07339); experiment: Inhibition of cathepsin D activity (substrate peptide […], MALDI-TOF); format: biochemical; details: pH 4.1, 37 degrees C., substrate NH3-[…]-CO2, MALDI-TOF; read-out: Cath D Ki
Cathepsin D, sequence (P07339 65-412, species assumed): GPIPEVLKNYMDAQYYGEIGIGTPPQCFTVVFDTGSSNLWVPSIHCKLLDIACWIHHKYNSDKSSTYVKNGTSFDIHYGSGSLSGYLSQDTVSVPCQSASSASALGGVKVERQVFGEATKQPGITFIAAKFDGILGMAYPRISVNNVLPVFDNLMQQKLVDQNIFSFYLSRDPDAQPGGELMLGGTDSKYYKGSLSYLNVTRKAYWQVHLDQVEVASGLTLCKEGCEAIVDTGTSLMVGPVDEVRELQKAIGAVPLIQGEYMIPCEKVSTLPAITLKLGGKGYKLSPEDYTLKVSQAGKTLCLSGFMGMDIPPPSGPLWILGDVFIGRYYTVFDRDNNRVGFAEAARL

memapsin 1 = target: T1, memapsin 1 (Homo sapiens, UniProt Q9Y5Z0); experiment: Inhibition of memapsin 1 beta-secretase activity (substrate peptide […], MALDI-TOF); format: biochemical; details: pH 4.1, 37 degrees C., substrate NH3-ELDLAVEFWHDR-CO2, MALDI-TOF; read-out: M1 Ki
T1 sequence (Q9Y5Z0 63-518): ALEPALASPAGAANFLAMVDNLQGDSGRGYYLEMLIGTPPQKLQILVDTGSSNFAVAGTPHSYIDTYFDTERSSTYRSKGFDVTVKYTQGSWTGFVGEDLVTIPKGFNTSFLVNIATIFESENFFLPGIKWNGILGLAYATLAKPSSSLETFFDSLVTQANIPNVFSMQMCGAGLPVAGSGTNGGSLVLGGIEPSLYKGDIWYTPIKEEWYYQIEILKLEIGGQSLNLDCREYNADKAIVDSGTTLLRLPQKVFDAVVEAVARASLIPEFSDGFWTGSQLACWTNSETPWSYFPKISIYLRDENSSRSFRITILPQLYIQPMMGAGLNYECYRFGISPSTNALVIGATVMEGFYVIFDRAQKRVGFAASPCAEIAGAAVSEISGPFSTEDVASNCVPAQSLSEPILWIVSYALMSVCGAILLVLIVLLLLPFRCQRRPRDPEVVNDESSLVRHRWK

Aβ production = experiment: Cellular Aβ IC50 determination (Aβ40 sandwich ELISA); format: cell-based; details: Cricetulus griseus, Chinese hamster ovary cells over-expressing human APP695 with London and Swedish mutations, 24 h
Procedure: The potency of compounds against memapsin 2 activity was determined in a cellular assay of Aβ production. […] Chinese hamster ovary cells that over-express human APP695 with the London and Swedish mutations were seeded in multi-well plates at 10% confluency. Compounds were dissolved in DMSO to concentrations near 1 mM, and diluted into culture media to a final concentration near 4 μM (final 0.4% DMSO). Compounds were diluted serially and applied to cells in multi-well plates 48 h after seeding. Incubation was continued in 5% CO2 at 37 degrees C. for 24 h. Aliquots were removed and assayed for Aβ40 content using a sandwich ELISA (BioSource International). Amount of Aβ40 over the range of concentration of compounds, relative to control incubations, were fit to a 4-parameter IC50 model.

memapsin 2, sequence (P56817 46-501): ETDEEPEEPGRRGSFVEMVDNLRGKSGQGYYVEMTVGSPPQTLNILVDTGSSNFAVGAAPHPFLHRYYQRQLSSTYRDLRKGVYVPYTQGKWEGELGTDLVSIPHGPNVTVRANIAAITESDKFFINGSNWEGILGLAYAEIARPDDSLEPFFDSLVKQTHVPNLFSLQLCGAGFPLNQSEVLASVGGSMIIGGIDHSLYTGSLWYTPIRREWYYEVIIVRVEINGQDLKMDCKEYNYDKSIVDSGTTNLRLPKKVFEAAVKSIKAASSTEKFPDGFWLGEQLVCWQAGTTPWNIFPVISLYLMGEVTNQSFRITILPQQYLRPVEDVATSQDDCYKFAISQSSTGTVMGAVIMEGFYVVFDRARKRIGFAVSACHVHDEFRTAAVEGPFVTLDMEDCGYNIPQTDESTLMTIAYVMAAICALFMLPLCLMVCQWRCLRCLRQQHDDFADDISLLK

Structure (SMILES) | Ki (memapsin 2) [µM] | Ki (Cathepsin D) [µM] | Ki (memapsin 1) [µM] | IC50 (Aβ production) [µM]
COC(=O)[C@H](NC(=O)[C@H](C)C[C@H](O)[C@@H](CC(C)C)NC(=O)[C@H](CSC)NC(=O)OCc1nc(C)cs1)C(C)C [Structure 88] | > 1 | 0.1 to 1 | > 1 | < 6
CSC[C@H](NC(=O)OCc1ccn(C)n1)C(=O)N[C@H](CC(C)C)[C@@H](O)C[C@@H](C)C(=O)N[C@@H](C(=O)NCC(C)C)C(C)C [Structure 93] | 0.1 to 1 | < 0.1 | 0.1 to 1 | 6 to 100
CSC[C@H](NC(=O)OCc1nc(C)oc1C)C(=O)N[C@H](CC(C)C)[C@@H](O)C[C@@H](C)C(=O)N[C@@H](C(=O)NCC(C)C)C(C)C [Structure 29] | < 0.1 | < 0.1 | 0.1 to 1 | < 6
Cc1nc(COC(=O)N[C@@H](CS(C)(=O)=O)C(=O)N[C@H](CC(C)C)[C@@H](O)C[C@@H](C)C(=O)N[C@@H](C(=O)NCC(C)C)C(C)C)c(C)o1 [Structure 94] | < 0.1 | 0.1 to 1 | 0.1 to 1 | < 6
CSC[C@H](NC(=O)OCc1nc(C)cs1)C(=O)N[C@H](CC(C)C)[C@@H](O)C[C@@H](C)C(=O)N[C@@H](C(=O)NCC(C)C)C(C)C [Structure 17] | < 0.1 | < 0.1 | 0.1 to 1 | 6 to 100
Cc1csc(COC(=O)N[C@@H](CS(=O)(=O)C2CCCC2)C(=O)N[C@H](CC(C)C)[C@@H](O)C[C@@H](C)C(=O)N[C@@H](C(=O)NCC(C)C)C(C)C)n1 [Structure 58] | < 0.1 | 0.1 to 1 | 0.1 to 1 | < 6
C=CCS(=O)(=O)C[C@H](NC(=O)CCn1nc(C)cc1C)C(=O)N[C@H](CC(C)C)[C@@H](O)C[C@@H](C)C(=O)N[C@@H](C(=O)NCC(C)C)C(C)C [Structure 18] | < 0.1 | < 0.1 | < 0.1 | > 100
CCS(=O)(=O)C[C@H](NC(=O)OCc1nc(C)cs1)C(=O)N[C@H](CC(C)C)[C@@H](O)C[C@@H](C)C(=O)N[C@@H](C(=O)NCC(C)C)C(C)C [Structure 22] | < 0.1 | 0.1 to 1 | 0.1 to 1 | < 6

Now from value to compound:

Ki (memapsin 2) [µM] | Ki (Cathepsin D) [µM] | Ki (memapsin 1) [µM] | IC50 (Aβ production) [µM] | Structure (SMILES)
< 0.1 | 0.1 to 1 | 0.1 to 1 | < 6 | CCc1nc(COC(=O)N[C@@H](CS(C)(=O)=O)C(=O)N[C@H](CC(C)C)[C@@H](O)C[C@@H](C)C(=O)N[C@@H](C(=O)NCC(C)C)C(C)C)c(C)o1 [Structure 74]
< 0.1 | 0.1 to 1 | 0.1 to 1 | > 100 | COCS(=O)(=O)C[C@H](NC(=O)OCc1nc(C)cs1)C(=O)N[C@H](CC(C)C)[C@@H](O)C[C@@H](C)C(=O)N[C@@H](C(=O)NCC(C)C)C1CCCCC1 [Structure 35]
< 0.1 | 0.1 to 1 | 0.1 to 1 | < 6 | Cc1csc(COC(=O)N[C@@H](CS(C)(=O)=O)C(=O)N[C@H](CC(C)C)[C@@H](O)C[C@@H](C)C(=O)N[C@H](CC(C)C)C(=O)NC(C)C)n1 [Structure 46]
< 0.1 | < 0.1 | 0.1 to 1 | > 100 | CSC[C@H](NC(=O)CCc1nc(C)cs1)C(=O)N[C@H](CC(C)C)[C@@H](O)C[C@@H](C)C(=O)N[C@@H](C(=O)NCC(C)C)C(C)C [Structure 39]
< 0.1 | < 0.1 | 0.1 to 1 | < 6 | CCC(C)SC[C@H](NC(=O)OCc1nc(C)cs1)C(=O)N[C@H](CC(C)C)[C@@H](O)C[C@@H](C)C(=O)N[C@@H](C(=O)NCC(C)C)C(C)C (stereo partly drawn) [Structure 66]
< 0.1 | < 0.1 | 0.1 to 1 | < 6 | CC[C@@H](Cc1nc(C)cs1)C(=O)N[C@@H](CS(C)(=O)=O)C(=O)N[C@H](CC(C)C)[C@@H](O)C[C@@H](C)C(=O)N[C@@H](C(=O)NCC(C)C)C(C)C [Structure 77]
< 0.1 | 0.1 to 1 | > 1 | < 6 | Cc1coc(COC(=O)N[C@@H](CS(C)(=O)=O)C(=O)N[C@@H](CC(C)C)[C@@H](O)C[C@@H](C)C(=O)N[C@H](C(=O)NCC(C)C)C(C)C)n1 [Structure 95]
